These results are taken from patent publication US8975400B2, “2,3-dihydroimidazo[1, 2-c] pyrimidin-5(1 H)-one compounds use as LP-PLA2 inhibitors” (Glaxo Group Limited, priority 2011, dated 2015).

The target of assay [1] is T1, Lp-PLA2 in human plasma (Homo sapiens, UniProt Q13093).
T1 construct: This assay may detect the activity of Lp-PLA2 in human plasma; from tissue; host or cells: pooled human plasma
T1 sequence (Q13093 22-441): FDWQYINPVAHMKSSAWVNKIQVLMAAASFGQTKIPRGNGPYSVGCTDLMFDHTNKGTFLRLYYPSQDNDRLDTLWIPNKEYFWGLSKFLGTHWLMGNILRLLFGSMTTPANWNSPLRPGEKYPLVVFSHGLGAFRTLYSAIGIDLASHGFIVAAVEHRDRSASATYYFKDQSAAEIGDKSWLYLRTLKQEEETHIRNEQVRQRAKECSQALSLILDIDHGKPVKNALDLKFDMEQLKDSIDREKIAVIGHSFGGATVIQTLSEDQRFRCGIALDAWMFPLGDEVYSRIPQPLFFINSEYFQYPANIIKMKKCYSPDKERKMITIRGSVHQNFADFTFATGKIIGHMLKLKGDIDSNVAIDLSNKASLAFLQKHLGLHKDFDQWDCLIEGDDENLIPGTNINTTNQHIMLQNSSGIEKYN
Briefly: Lp-PLA2 human plasma assay (Thio-PAF assay). As to conditions: pooled human plasma, 2-thio-PAF substrate; read-out: pIC50 in the thio-PAF assay (converted). The class given is biochemical. Put shortly: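 Pooled human plasma preincubated 30 min with serially diluted compounds, then 2-thio-PAF substrate with CPM and NEM added in 50 mM HEPES pH 7.4, 150 mM NaCl, 1 mM CHAPS. TFA-quenched after 2 min, 40 min at RT, fluorescence ex 380/em 485; pIC50 from curve fit.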

Assay [2] has as its target T2, recombinant human Lp-PLA2 (Homo sapiens, UniProt Q13093).
T2 sequence (Q13093 22-441): T1 sequence (Q13093 22-441)
Briefly: Recombinant human Lp-PLA2 assay (rhLp-PLA2, PED6 assay). The class given is biochemical. The settings on record: recombinant human Lp-PLA2, PED6 substrate; upper limit for pIC50 in this assay is 9.3. The essentials:
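Compound preincubated 30 min with rhLp-PLA2 (4 nM or 110 pM) in 50 mM HEPES pH 7.4, 150 mM NaCl, 1 mM CHAPS, then PED6 substrate (4 μM or 5 μM) added. After 20 min at room temperature protected from light, fluorescence read at ex 480/em 540. pIC50 derived from serial-dilution curves.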

Assay [3] relates to experimental autoimmune encephalomyelitis (EAE) induced by myelin basic protein (MBP). Description: Rat experimental autoimmune encephalomyelitis (EAE) model, preventive treatment. The format is in vivo. The method, then: A further study was carried out to study the impact of Lp-PLA2 inhibitors on modulating M1/M2 imbalance. In this study, rats were induced to develop experimental autoimmune encephalomyelitis (EAE) by immunization with myelin basic protein (MBP) antigen and treated with a known Lp-PLA2 inhibitor: 5-((9-Methoxy-4-oxo-6,7-dihydro-4H-pyrimido[6,1-a]isoquinolin-2-yl)oxy)-2-(3-(trifluoromethyl)phenoxy)benzonitrile (See PCT application no. PCT/CN2011/001597). In this preventive treatment model, the compound was administered at day 0 (day of immunization) and continued to administer until day 22. The study lasted for 25 days. Rats were subsequently monitored for symptoms of EAE. Rats were immunized with MBP to develop EAE and symptoms were monitored daily. Plasma Lp-PLA2 activity, OxLDL, and LysoPC concentration were determined at different time points through the course of EAE.

For assay [4], the system named is splenic macrophages and CNS infiltrating macrophages (M1/M2 markers). Description: Ex vivo analysis of M1 and M2 markers in macrophages of EAE rats by realtime PCR. Further details: species or system rat. As to conditions: splenic macrophages harvested day 13 post MBP-immunization. As for the experimental part: Ex vivo analysis of proinflammatory (M1) and anti-inflammatory (M2) markers in control and compound treated EAE rats. Splenic macrophages were harvested at day 13 post MBP-immunization and assayed for expression of a variety of markers by realtime PCR. CNS infiltrating cells were harvested and macrophages were analyzed for expression of M1 and M2 markers by realtime PCR.

Counter-ions that a name gives are not always drawn.

`CN1CCn2c1cc(OCc1ccc(Oc3ccc(C#N)c(Cl)c3)c(F)c1)nc2=O` [Example 128, 2-chloro-4-(2-fluoro-4-(((1-methyl-5-oxo-1,2,3,5-tetrahydroimidazo[1,2-c]pyrimidin-7-yl)oxy)methyl)phenoxy)benzonitrile]: the IC50 in assay [1] was not above 0.1 µM; in assay [2], not above 0.001 µM.
The corresponding values for `CN1CCn2c1cc(OCc1ccc(Oc3ccc(Cl)c(F)c3)cc1)nc2=O` [Example E25, 7-((4-(4-chloro-3-fluorophenoxy)benzyl)oxy)-1-methyl-2,3-dihydroimidazo[1,2-c]pyrimidin-5(1H)-one] are not above 1 µM and not above 0.01 µM.
The corresponding values for `CN1CCn2c1cc(OCc1ccc(Oc3ccnc(Cl)c3)c(F)c1)nc2=O` [Example 109, 7-((4-((2-chloropyridin-4-yl)oxy)-3-fluorobenzyl)oxy)-1-methyl-2,3-dihydroimidaz-o[1,2-c]pyrimidin-5(1H)-one] are not above 1 µM and not above 0.01 µM.
In the case of `N#Cc1cc(COc2cc3n(c(=O)n2)CCN3)ccc1Oc1ccc(F)c(F)c1` [Example E72, 2-(3,4-difluorophenoxy)-5-(((5-oxo-1,2,3,5-tetrahydroimidazo[1,2-c]pyrimidin-7-yl)oxy)methyl)benzonitrile, trifluoroacetic acid salt], the values for the IC50 in assay [1] and in assay [2] were not above 1 µM and not above 0.001 µM, respectively.
The corresponding values for `CN1CCn2c1cc(OCc1ccc(Oc3ccc(F)c(F)c3)c(C#N)c1)nc2=O` [Example E34, 2-(3,4-difluorophenoxy)-5-(((1-methyl-5-oxo-1,2,3,5-tetrahydroimidazo[1,2-c]pyrimidin-7-yl)oxy)methyl)benzonitrile] are not above 0.1 µM and not above 0.01 µM.
Consider `COc1ccc2c(c1)CCn1c-2cc(Oc2ccc(Oc3cccc(C(F)(F)F)c3)c(C#N)c2)nc1=O` [5-((9-Methoxy-4-oxo-6,7-dihydro-4H-pyrimido[6,1-a]isoquinolin-2-yl)oxy)-2-(3-(trifluoromethyl)phenoxy)benzonitrile], for which, in assay [3] (rat EAE plasma), the LysoPC levels result is “decreased” and the “plasma Lp-PLA2 activity” value was “decreased”. In addition, the “clinical disease (EAE)” value in assay [3] (rat EAE, compound administered day 0 until day 22, study 25 days) is reported as “reduction in clinical disease”. For the same compound, in assay [4], the “M1 (proinflammatory) markers expression” value is on record as “decrease in M1 markers” and the “M2 (anti-inflammatory) markers expression” value is “increase in M2 markers”.
